Measured values as given in patent publication US20230399312A1, “SUBSTITUTED PYRIMIDINES AND METHODS OF USE” (THERAVANCE BIOPHARMA R&D IP, LLC, priority 2020, published 2023).

How the values were obtained:
[1] = target: T1, recombinant human ALK5 (TGF-βR1) protein (Homo sapiens, UniProt P36897); assay: Biochemical ALK5 (TGF-βR1) assay to measure pKi (LANCE Ultra ULight kinase assay); conditions: apparent pKi, converted from pIC50 by Cheng-Prusoff
T1 construct: purchased Life Technologies PR9075A
T1 sequence (P36897 34-503): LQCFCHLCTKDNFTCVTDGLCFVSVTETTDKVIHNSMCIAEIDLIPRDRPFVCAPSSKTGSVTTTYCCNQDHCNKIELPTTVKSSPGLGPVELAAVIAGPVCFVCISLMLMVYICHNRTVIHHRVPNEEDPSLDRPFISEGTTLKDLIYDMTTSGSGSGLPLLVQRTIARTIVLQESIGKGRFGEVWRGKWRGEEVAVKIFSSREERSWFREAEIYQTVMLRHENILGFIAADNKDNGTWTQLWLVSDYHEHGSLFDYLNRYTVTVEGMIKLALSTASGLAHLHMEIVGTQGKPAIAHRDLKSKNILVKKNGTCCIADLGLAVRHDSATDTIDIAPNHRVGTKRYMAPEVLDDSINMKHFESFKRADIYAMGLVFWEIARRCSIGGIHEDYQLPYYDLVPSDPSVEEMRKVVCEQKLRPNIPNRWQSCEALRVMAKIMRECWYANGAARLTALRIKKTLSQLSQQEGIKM
How it was run: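 Dose-response series of each compound were preincubated with the kinase for 60 minutes at room temperature. Phosphorylation proceeded for 60 minutes at 37 °C after ATP addition, was quenched with EDTA, and was detected with a europium anti-phospho-Thr1342 antibody by TR-FRET; pKi was calculated from pIC50.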

[2] = tested on: TGF-β-stimulated SMAD3 phosphorylation in BEAS-2B cells; assay: Cellular ALK5 potency assay, inhibition of TGF-β stimulated pSMAD3 formation in BEAS-2B cells; type: cell-based; conditions: Homo sapiens, pSMAD3, TGF-β 10 ng/mL, read-out: BEAS2B pIC50 (converted)
How it was run: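 Potency is expressed as pIC50, based on dose-dependent reduction of TGF-β-induced pSMAD3 AlphaLISA signal relative to stimulated cells without compound. BEAS-2B cells received compound 1 h before a 30 min, 10 ng/mL TGF-β challenge.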

| Structure (SMILES) | Ki [1] | IC50 [2] |
| --- | --- | --- |
| COCCn1cc(-c2ccc(Nc3nccc(Nc4ccnc(-c5cccc(C)n5)n4)n3)cc2)cn1 [Compound 169, N2-[4-[1-(2-methoxyethyl)pyrazol-4-yl]phenyl]-N4-[2-(6-methyl-2-pyridyl)pyrimidin-4-yl]pyrimidine-2,4-diamine] | 0.398 to 3.16 nM | 25.1 to 158 nM |
| Cc1ccc(Nc2nccc(Nc3ccnc(-c4cccc(C)n4)n3)n2)cc1 [Compound 170, N4-[2-(6-methyl-2-pyridyl)pyrimidin-4-yl]-N2-(p-tolyl)pyrimidine-2,4-diamine] | 0.398 to 3.16 nM | 25.1 to 158 nM |
| COC(=O)C1CN(CCNc2ccc(Nc3nccc(Nc4ccnc(-c5cccc(C)n5)n4)n3)cc2)CCN1C(C)C (stereo not shown) [Compound 171, methyl 1-isopropyl-4-[2-[4-[[4-[[2-(6-methyl-2-pyridyl)pyrimidin-4-yl]amino]pyrimidin-2-yl]amino]anilino]ethyl] piperazine-2-carboxylate] | 0.398 to 3.16 nM | 25.1 to 158 nM |
| COC(=O)[C@H]1CN(c2ccc(Nc3nccc(Nc4ccnc(-c5cccc(C)n5)n4)n3)cc2)CCN1 [Compound 172, methyl (2R)-4-[4-[[4-[[2-(6-methyl-2-pyridyl)pyrimidin-4-yl]amino]pyrimidin-2-yl]amino]phenyl]piperazine-2-carboxylate] | 0.0398 to 0.316 nM | 25.1 to 158 nM |
| Cc1cccc(-c2nccc(Nc3ccnc(Nc4ccc(N5CCCC(C(=O)OC6CNC6)C5)cc4)n3)n2)n1 (stereo not shown) [Compound 173, azetidin-3-yl 1-[4-[[4-[[2-(6-methyl-2-pyridyl)pyrimidin-4-yl]amino]pyrimidin-2-yl]amino]phenyl]piperidine-3-carboxylate] | 0.0398 to 0.316 nM | 25.1 to 158 nM |
| Cc1cccc(-c2nccc(Nc3ccnc(Nc4ccc(CN5CC(C(=O)O[C@H]6CCNC6)C5)cc4)n3)n2)n1 [Compound 174, [(3S)-pyrrolidin-3-yl] 1-[[4-[[4-[[2-(6-methyl-2-pyridyl)pyrimidin-4-yl]amino]pyrimidin-2-yl]amino]phenyl]methyl] azetidine-3-carboxylate] | 0.0398 to 0.316 nM | 25.1 to 158 nM |
| Cc1cccc(-c2nccc(Nc3ccnc(Nc4ccc5c(c4)CNCC5)n3)n2)n1 [Compound 175, N4-(2-(6-methylpyridin-2-yl)pyrimidin-4-yl)-N2-(1,2,3,4-tetrahydroisoquinolin-7-yl)pyrimidine-2,4-diamine] | ≤ 0.0316 nM | 25.1 to 158 nM |
| CNC1CCN(S(=O)(=O)c2cccc(Nc3nccc(Nc4ccnc(-c5cccc(C)n5)n4)n3)c2)CC1 [Compound 176, N2-[3-[[4-(methylamino)-1-piperidyl]sulfonyl]phenyl]-N4-[2-(6-methyl-2-pyridyl)pyrimidin-4-yl]pyrimidine-2,4-diamine] | 0.398 to 3.16 nM | 25.1 to 158 nM |
| Cc1cccc(-c2nccc(Nc3ccnc(Nc4ccc(CN5CC6CCCC(C5)N6)cc4)n3)n2)n1 [Compound 177, N2-[4-(3,9-diazabicyclo[3.3.1]nonan-3-ylmethyl)phenyl]-N4-[2-(6-methyl-2-pyridyl)pyrimidin-4-yl]pyrimidine-2,4-diamine] | 0.0398 to 0.316 nM | 25.1 to 158 nM |
| Cc1cccc(-c2nccc(Nc3ccnc(Nc4cccc(C(=O)OCC5CNC5)c4)n3)n2)n1 [Compound 178, azetidin-3-ylmethyl 3-((4-((2-(6-methylpyridin-2-yl)pyrimidin-4-yl)amino)pyrimidin-2-yl)amino)benzoate] | 0.398 to 3.16 nM | 25.1 to 158 nM |
| Cc1ccc(O)cc1-c1nccc(Nc2ccnc(Nc3ccc(N4CCNCC4)cc3)n2)n1 [Compound 179, 4-methyl-3-[4-[[2-(4-piperazin-1-ylanilino)pyrimidin-4-yl]amino]pyrimidin-2-yl]phenol] | 0.398 to 3.16 nM | 25.1 to 158 nM |
| Cc1cccc(-c2nccc(Nc3ccnc(Nc4ccc(NC(=O)C5(O)CNC5)cc4)n3)n2)n1 [Compound 180, 3-hydroxy-N-[4-[[4-[[2-(6-methyl-2-pyridyl)pyrimidin-4-yl]amino]pyrimidin-2-yl]amino]phenyl]azetidine-3-carboxamide] | 0.0398 to 0.316 nM | 25.1 to 158 nM |
| Cc1cccc(-c2nccc(Nc3ccnc(Nc4cnn(CC5CNC5)c4)n3)n2)n1 [Compound 181, N2-[1-(azetidin-3-ylmethyl)pyrazol-4-yl]-N4-[2-(6-methyl-2-pyridyl)pyrimidin-4-yl]pyrimidine-2,4-diamine] | 0.0398 to 0.316 nM | 200 to 1260 nM |
| Cc1cccc(-c2nccc(Nc3ccnc(Nc4ccc(CN5CCC[C@@H](C(=O)OCC6CN(C)C6)C5)cc4)n3)n2)n1 [Compound 182, (1-methylazetidin-3-yl)methyl (3R)-1-[[4-[[4-[[2-(6-methyl-2-pyridyl)pyrimidin-4-yl]amino]pyrimidin-2-yl]amino]phenyl]methyl] piperidine-3-carboxylate] | 0.0398 to 0.316 nM | 25.1 to 158 nM |
| Cc1cccc(-c2nccc(Nc3ccnc(Nc4ccc(CN5CCN[C@@H](CO)C5)cc4)n3)n2)n1 [Compound 183, [(2R)-4-[[4-[[4-[[2-(6-methyl-2-pyridyl)pyrimidin-4-yl]amino]pyrimidin-2-yl]amino]phenyl]methyl]piperazin-2-yl]methanol] | 0.0398 to 0.316 nM | 25.1 to 158 nM |
| Cc1cccc(-c2nccc(Nc3ccnc(Nc4cc(F)c(NC(=O)C5CCNCC5)c(Cl)c4)n3)n2)n1 [Compound 184, N-[2-chloro-6-fluoro-4-[[4-[[2-(6-methyl-2-pyridyl)pyrimidin-4-yl]amino]pyrimidin-2-yl]amino]phenyl]piperidine-4-carboxamide] | 0.0398 to 0.316 nM | 25.1 to 158 nM |
| Cc1cccc(-c2nccc(Nc3ccnc(Nc4ccc(N5CCC(C(=O)O[C@H]6CCNC6)CC5)cc4)n3)n2)n1 [Compound 185, [(3S)-pyrrolidin-3-yl] 1-[4-[[4-[[2-(6-methyl-2-pyridyl)pyrimidin-4-yl]amino]pyrimidin-2-yl]amino]phenyl]piperidine-4-carboxylate] | 0.0398 to 0.316 nM | 25.1 to 158 nM |
| Cc1cccc(-c2nccc(Nc3ccnc(Nc4ccc(N5CC(CN)C5)cc4)n3)n2)n1 [Compound 186, N2-[4-[3-(aminomethyl)azetidin-1-yl]phenyl]-N4-[2-(6-methyl-2-pyridyl)pyrimidin-4-yl]pyrimidine-2,4-diamine] | 0.0398 to 0.316 nM | 25.1 to 158 nM |
| Cc1cccc(-c2nccc(Nc3ccnc(Nc4ccc(CN)cc4)n3)n2)n1 [Compound 187, N2-[4-(aminomethyl)phenyl]-N4-[2-(6-methyl-2-pyridyl)pyrimidin-4-yl]pyrimidine-2,4-diamine] | 0.0398 to 0.316 nM | 25.1 to 158 nM |
| Cc1cccc(-c2nccc(Nc3ccnc(Nc4csc(C(=O)N5CCNCC5)c4)n3)n2)n1 [Compound 188, [4-[[4-[[2-(6-methyl-2-pyridyl)pyrimidin-4-yl]amino]pyrimidin-2-yl]amino]-2-thienyl]-piperazin-1-yl-methanone] | ≤ 0.0316 nM | 25.1 to 158 nM |
| Cc1cccc(-c2nccc(Nc3ccnc(Nc4ccc(N5CCN(C(C)C)CC5)cc4)n3)n2)n1 [Compound 189, N2-[4-(4-isopropylpiperazin-1-yl)phenyl]-N4-[2-(6-methyl-2-pyridyl)pyrimidin-4-yl]pyrimidine-2,4-diamine] | ≤ 0.0316 nM | 25.1 to 158 nM |
| CC(=O)N1CCN(c2cccc(Nc3nccc(Nc4ccnc(-c5cccc(C)n5)n4)n3)c2)CC1 [Compound 190, 1-[4-[3-[[4-[[2-(6-methyl-2-pyridyl)pyrimidin-4-yl]amino]pyrimidin-2-yl]amino]phenyl]piperazin-1-yl]ethanone] | 0.0398 to 0.316 nM | 25.1 to 158 nM |
| Cc1cccc(-c2nccc(Nc3ccnc(Nc4cc(N)c5c(c4)OCCO5)n3)n2)n1 [Compound 191, N2-(5-amino-2,3-dihydro-1,4-benzodioxin-7-yl)-N4-[2-(6-methyl-2-pyridyl)pyrimidin-4-yl]pyrimidine-2,4-diamine] | 0.398 to 3.16 nM | 25.1 to 158 nM |
| Cc1cccc(-c2nccc(Nc3ccnc(Nc4ccc(C5=CCNCC5)cc4)n3)n2)n1 [Compound 193, N4-[2-(6-methyl-2-pyridyl)pyrimidin-4-yl]-N2-[4-(1,2,3,6-tetrahydropyridin-4-yl)phenyl]pyrimidine-2,4-diamine] | 0.0398 to 0.316 nM | ≤ 20 nM |
| Cc1cccc(-c2nccc(Nc3ccnc(Nc4ccc(N5CCC(NCC(C)C)CC5)cc4)n3)n2)n1 [Compound 194, N2-[4-[4-(isobutylamino)-1-piperidyl]phenyl]-N4-[2-(6-methyl-2-pyridyl)pyrimidin-4-yl]pyrimidine-2,4-diamine] | 0.0398 to 0.316 nM | 25.1 to 158 nM |
| Cc1cccc(-c2nccc(Nc3ccnc(Nc4ccc(CN5CCC(C(=O)O[C@@H]6CCN(C)C6)C5)cc4)n3)n2)n1 (stereo partly drawn) [Compound 195, [(3R)-1-methylpyrrolidin-3-yl] 1-[[4-[[4-[[2-(6-methyl-2-pyridyl)pyrimidin-4-yl]amino]pyrimidin-2-yl]amino]phenyl]methyl] pyrrolidine-3-carboxylate] | 0.0398 to 0.316 nM | 25.1 to 158 nM |
